Data set [1] relates to ERK phosphorylation in AGS cells. The experiment in a line: Inhibition of ERK phosphorylation in AGS cells (HTRF method). The class given is cell-based. The following applies: Homo sapiens, 1 h incubation. As to the method:
In the experiment, the inhibitory effects of the compounds of the present disclosure on the KRAS target were evaluated by assessing the inhibitory effects of the compounds on ERK phosphorylation in cells and based on IC50 values.
AGS cells were cultured in an RPMI1640 (Hyclone, SH30809.01) complete culture medium containing 10% fetal bovine serum. On the first day of the experiment, the AGS cells were seeded into a 96-well plate with a complete culture medium at a density of 40,000 cells/well, with each well containing 190 μL of a cell suspension. The plate was incubated overnight in a 37° C., 5% CO2 cell incubator.
The next day, the test compounds, serially diluted in a complete culture medium, were added at 10 μL/well. The final concentrations of the compounds were 9 concentration points obtained by 5-fold serial dilution from 10 μM. A blank control containing 0.5% DMSO was set. The plate was incubated in a 37° C., 5% CO2 cell incubator for 1 h. After the incubation, the 96-well cell culture plate was taken out, and the culture medium was removed using a pipette. The plate was washed once by adding 200 μL of PBS (Shanghai BasalMedia Technologies Co., Ltd., B320) to each well. The PBS was removed using a pipette, and 50 μL of a lysis buffer (Cisbio, 64KL1FDF) containing a blocking reagent (Cisbio, 64KB1AAC) was added to each well. The plate was shaken on a shaker at room temperature for 40 min for lysis. After lysis, the lysate was pipetted for good uniformity. […]
On the third day, the fluorescence values at an excitation wavelength of 337 nm and emission wavelengths of 665 nm and 620 nm were obtained using a multi-mode microplate reader (PerkinElmer, EnVision).
The ratio of the fluorescence signal at 665 nm to the fluorescence signal at 620 nm was calculated for phosphorylated ERK1/2 and total ERK1/2 for the compounds at various concentrations, and IC50 values for the inhibitory activity of the compounds were calculated using Graphpad Prism software based on the concentrations of the compounds and the phosphorylated ERK1/2 ratios corrected using the total ERK1/2 ratios.

The test system of the next data set is AGS cells. The experiment in a line: Inhibition of 3D proliferation of AGS cells (CellTiter-Glo 3D). The conditions noted are these: Homo sapiens, 120 h, 5 days. The class given is cell-based. On the procedure:
(§1) The inhibitory effects of the compounds of the present disclosure on the KRAS target were evaluated by assessing the inhibitory effects of the compounds of the present disclosure on the 3D proliferation of GP2d and AGS cells.
AGS cells were cultured in a complete culture medium, namely an RPM11640 medium (Hyclone, SH30809.01) containing 10% fetal bovine serum (Corning, 35-076-CV). On the first day of the experiment, the AGS cells were seeded into a 96-well low-adsorption plate (Corning, CLS7007-24EA) with a complete culture medium at a density of 1000 cells/well, with each well containing 90 μL of a cell suspension. The plate was centrifuged at 2000 rpm for 5 min at room temperature and then incubated overnight in a 37° C., 5% CO2 cell incubator.
(§2) The next day, the test compounds, serially diluted in a complete culture medium, were added at 10 μL/well. The final concentrations of the compounds for GP2d cells were 9 concentration points obtained by 5-fold serial dilution from 1 μM, and the final concentrations of the compounds for AGS cells were 9 concentration points obtained by 5-fold serial dilution from […]. A blank control containing 0.5% DMSO was set for both types of cells. The plates were incubated in a 37° C., 5% CO2 cell incubator for 5 days. On the seventh day, the 96-well cell culture plates were taken out, and 50 μL of the CellTiter-Glo® 3D Cell Viability Assay reagent (Promega, G^9682) was added to each well. The plates were shaken at room temperature in the dark for 25 min. The contents in the wells were pipetted for good uniformity, and 100 μL of the mixture was transferred from each well to a white impermeable 96-well plate (PerkinElmer, 6005290). The luminescence signal values were obtained using a multi-mode microplate reader (PerkinElmer, EnVision2105).

A further data set deals with GP2d cells. The experiment in a line: Inhibition of 3D proliferation of GP2d cells (CellTiter-Glo 3D). It counts as cell-based. The following applies: 120 h, 5 days. As to the method: as §1
GP2d cells were cultured in a complete culture medium, namely a DMEM/high glucose culture medium (Hyclone, SH30243.01) containing 10% fetal bovine serum (Corning, 35-076-CV). On the first day of the experiment, the GP2d cells were seeded into a 96-well low-adsorption plate (Corning, CLS7007-24EA) with a complete culture medium at a density of 1000 cells/well, with each well containing 90 μL of a cell suspension. The plate was centrifuged at 2000 rpm for 5 min at room temperature and then incubated overnight in a 37° C., 5% CO2 cell incubator.
as §2

A further data set concerns AsPC-1 cells. The experiment in a line: Inhibition of 3D proliferation of AsPC-1 cells (CellTiter-Glo 3D). The class given is cell-based. The conditions noted are these: Homo sapiens, ASPC1, 120 h, 5 days. On the procedure:
On the first day of the experiment, well-grown AsPC-1 cells with 70%-80% confluency were digested and resuspended in an RPMI 1640 culture medium (Hyclone, SH30809.01) containing 10% FBS, and the cell density was adjusted to the desired level. The cell suspension was added to a U-shaped low-adsorption 96-well plate (Corning, CLS7007-24EA) at 90 μL/well, with a cell density of 1500 cells/well. The cell plate was centrifuged at 2500 rpm for 5 min and then incubated overnight in a 37° C., 5% CO2 incubator. The next day, 20 mM test compounds dissolved in DMSO were diluted to an initial concentration of 2 mM and then serially diluted 5-fold, and a total of 9 concentration points were obtained. Control wells were set using DMSO. The serially diluted compounds were then further diluted 20-fold with a culture medium. The test compounds, diluted with the culture medium, were added to the cell plate at 10 μL/well, with the final concentrations of the compounds being 9 concentration points obtained by 5-fold serial dilution from an initial concentration of 10 μM. Cell wells containing 0.5% DMSO were set as vehicle control wells, and wells containing only the culture medium and 0.5% DMSO were set as blank control wells. A duplicate well was set for each concentration of the compounds and the control wells, with the final concentration of DMSO in each well being 0.5%. The cell plate was centrifuged at 2500 rpm for 3 min and then incubated in a 37° C., 5% CO2 incubator for 5 days. On the seventh day, the 96-well cell culture plate was taken out, and 50 μL of the CellTiter-Glo® Luminescent 3D Cell Viability Assay reagent (Promega, G^9683) was added to each well. The plates were shaken at room temperature in the dark for 25 min. The contents in the wells were pipetted up and down for good uniformity, and then 100 μL of the mixture was transferred from each well to a white impermeable OptiPlate™-96-well plate (PerkinElmer, 6005290). The luminescence signal values were obtained using a multi-mode microplate reader (PerkinElmer, EnVision2105).
The inhibition rate was calculated using the formula: inhibition rate=(luminescence valuevehicle control well−luminescence valuetest compound)/(luminescence valuevehicle control well−luminescence valueblank control well)×100%. Curves were plotted using GraphPad Prism software based on the various concentrations of the compounds and the corresponding inhibition rates, and IC50 values for the compounds were calculated.

Data set [2] is described as follows: Pharmacokinetic evaluation in balb/c nude mice after intragastric administration. The class given is in vivo. The following applies: female, mouse, po, i.g., 40.0 mg/kg, plasma; for Vd/F: read-out: Apparent distribution volume Vz/F; for AUC(0-t): read-out: Area under curve AUC0-t; for CL/F: read-out: Clearance rate CL/F; for half-life: read-out: Half-life T½ (converted); for Cmax: read-out: Plasma concentration Cmax. On the procedure: Balb/c nude mice were used as test animals. After intragastric (i.g.) administration of example compounds to balb/c nude mice, the plasma concentrations at different time points were determined by the LC/MS/MS method. The pharmacokinetic behavior of the compounds of the present disclosure in balb/c nude mice was studied, and their pharmacokinetic profiles were evaluated.
Eighteen female balb/c nude mice, provided by Vital River Laboratory Animal Technology Co., Ltd. with production license SCXK (Zhejiang) 2019-0001, were evenly divided into 2 groups.
A certain amount of a test compound was weighed out, and 5% DMF+45% PG+50% (10% HS15-pH 7.4 buffer)+400 mpk SNAC was added to prepare a 4 mg/mL colorless clear solution.
The dose administered was 40.0 mg/kg, and the volume was 10 mL/kg.
0.1-mL blood samples were collected from the orbit before administration and 0.25 h, 0.5 h, 1.0 h, 2.0 h, 4.0 h, 6.0 h, 8.0 h, 11.0 h, and 24.0 h after administration. The blood samples were placed into EDTA-K2 anticoagulation test tubes and centrifuged at 10,000 rpm for 1 min (4° C.), and plasma was separated within 1 h and stored at −20° C. before analysis. The procedure starting from the blood collection to the centrifugation was performed under ice-bath conditions.
After administration of different concentrations of the test compounds, the plasma concentration of the test compounds in balb/c nude mice was determined: A 25-μL sample of the balb/c nude mouse plasma of each time point after administration was taken, and 200 μL of acetonitrile containing an internal standard (for compound 37, the internal standard was 100 ng/mL verapamil; for compound 39, the internal standard was 100 ng/mL diclofenac) was added. The mixture was vortexed for 5 min and centrifuged at 3700 rpm for 20 min, and the supernatant was mixed with water (1:1). 0.5-2 μL of the supernatant was taken and analyzed by LC/MS/MS. 4. Pharmacokinetic parameters

The source of these data is patent US20260274861A1, “FUSED RING COMPOUND, PREPARATION METHOD THEREFOR AND MEDICINAL APPLICATION THEREOF” (JIANGSU HENGRUI PHARMACEUTICALS CO., LTD., priority 2022, published 2026).

pIC50: −log10 of the molar value.

As to `CCc1c(F)ccc2cc(O)cc(-c3nc4c5c(nc(OCC6(CN7CCOCC7)CC6)nc5c3F)N3C[C@H]5CC[C@H](N5)[C@H]3CO4)c12` [Example 1, 5-Ethyl-6-fluoro-4-((5aS,6S,9R)-1-fluoro-12-((1-(morpholinomethyl)cyclopropyl)methoxy)-5a,6,7,8,9,10-hexahydro-5H-4-oxa-3,10a,11,13,14-pentaaza-6,9-methanonaphtho[1,8-ab]heptalen-2-yl)naphthalen-2-ol], the negative logarithm of the IC50 (pIC50) in data set [1] was 9.02; in the data set on AGS cells it was 7.78; in the data set with GP2d cells, 8.28.

In turn, `C[C@@H]1Oc2nc(-c3ccc(F)c4sc(N)c(C#N)c34)c(F)c3nc(OCC4(CN5CCC(=CF)CC5)CC4)nc(c23)N2C[C@H]3CC[C@H](N3)[C@@H]12` [Example 37, 2-Amino-7-fluoro-4-((5S,5aS,6S,9R)-1-fluoro-12-((1-((4-(fluoromethylene)piperidin-1-yl)methyl)cyclopropyl)methoxy)-5-methyl-5a,6,7,8,9,10-hexahydro-5H-4-oxa-3,10a,11,13,14-pentaaza-6,9-methanonaphtho[1,8-ab]heptalen-2-yl)benzo[b]thiophene-3-carbonitrile] gave a pIC50 in the data set on AGS cells of 8.33. Also, the pIC50 in the data set with GP2d cells was 9.40. The pIC50 in the data set with AsPC-1 cells is 8.62. Also, in data set [2], the Vd/F was 78 L/kg, the AUC(0-t) is 5260 ng·h/mL, the CL/F is 113 mL/min/kg and the half-life was 477 min. The Cmax in data set [2] amounted to 699 ng/mL.

In data set [1], `CCc1c(F)ccc2cc(O)cc(-c3nc4c5c(nc(OCC6(CN7C[C@H]8C[C@@H]7CO8)CC6)nc5c3F)N3C[C@H]5CC[C@H](N5)[C@H]3CO4)c12` [Example 3, 4-((5aS,6S,9R)-12-((1-(((1R,4R)-2-Oxa-5-azabicyclo[2.2.1]heptan-5-yl)methyl)cyclopropyl)methoxy)-1-fluoro-5a,6,7,8,9,10-hexahydro-5H-4-oxa-3,10a,11,13,14-pentaaza-6,9-methanonaphtho[1,8-ab]heptalen-2-yl)-5-ethyl-6-fluoronaphthalen-2-ol] had a negative-log IC50 (pIC50) of 8.92.

Regarding `C[C@@H]1Oc2nc(-c3cc(N)cc(Cl)c3C(F)(F)F)c(F)c3nc(OCC4(CN5CCC(=C(F)F)CC5)CC4)nc(c23)N2C[C@H]3CC[C@H](N3)[C@@H]12` [Example 39, 3-Chloro-5-((5S,5aS,6S,9R)-12-((1-((4-(difluoromethylene)piperidin-1-yl)methyl)cyclopropyl)methoxy)-1-fluoro-5-methyl-5a,6,7,8,9,10-hexahydro-5H-4-oxa-3,10a,11,13,14-pentaaza-6,9-methanonaphtho[1,8-ab]heptalen-2-yl)-4-(trifluoromethyl)aniline], the pIC50 with AGS cells is 8.17. The molecule also gave a pIC50 in the data set with GP2d cells of 9.77. Further, in the data set on AsPC-1 cells, the pIC50 is 8.59. For the same molecule, in data set [2], the Vd/F was 64.2 L/kg, the AUC(0-t) came out at 7210 ng·h/mL, the CL/F came out at 73.7 mL/min/kg and the half-life is 604 min. Also, in data set [2], the Cmax stood at 578 ng/mL.

In data set [1], `CCc1c(F)ccc2cc(O)cc(-c3nc4c5c(nc(OCC6(CN7C[C@@H]8C[C@H]7CO8)CC6)nc5c3F)N3C[C@H]5CC[C@H](N5)[C@H]3CO4)c12` [Example 2, 4-((5aS,6S,9R)-12-((1-(((15,4S)-2-Oxa-5-azabicyclo[2.2.1]heptan-5-yl)methyl)cyclopropyl)methoxy)-1-fluoro-5a,6,7,8,9,10-hexahydro-5H-4-oxa-3,10a,11,13,14-pentaaza-6,9-methanonaphtho[1,8-ab]heptalen-2-yl)-5-ethyl-6-fluoronaphthalen-2-ol] gave a pIC50 of 8.82.
